Columns and labels:
[1] = molecular target: T1, EHV-1 Pol D752 + pORF18 (viral DNA polymerase holoenzyme) (Equine herpesvirus type 1 (strain AB4P), UniProt P28858); test: [3H]dTTP incorporation into poly(dA)-oligo(dT), in vitro translated Pol; assay type: biochemical; details: poly(dA)-oligo(dT) template, 4 μl translated Pol plus 200 fmol pORF18 in 20 μl, 0.5% DMSO
T1 construct: gene 30; Pol (D752) from pTM1-ORF30 made by in vitro transcription-translation (TNT T7 coupled reticulocyte lysate, not purified); pORF18 purified, baculovirus-expressed; with DNA polymerase processivity factor
T1 sequence (P28958 whole entry): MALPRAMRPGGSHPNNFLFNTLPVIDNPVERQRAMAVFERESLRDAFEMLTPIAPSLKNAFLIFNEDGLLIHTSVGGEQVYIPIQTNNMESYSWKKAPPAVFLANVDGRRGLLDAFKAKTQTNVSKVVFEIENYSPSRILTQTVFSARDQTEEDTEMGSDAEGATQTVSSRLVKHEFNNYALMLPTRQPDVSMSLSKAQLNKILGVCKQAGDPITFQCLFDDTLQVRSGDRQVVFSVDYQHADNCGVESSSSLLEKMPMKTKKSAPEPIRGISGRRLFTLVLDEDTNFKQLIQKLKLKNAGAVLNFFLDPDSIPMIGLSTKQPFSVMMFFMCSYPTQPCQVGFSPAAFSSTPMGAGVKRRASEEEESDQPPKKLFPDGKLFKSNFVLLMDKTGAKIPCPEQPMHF
T1 sequence (P28858 whole entry): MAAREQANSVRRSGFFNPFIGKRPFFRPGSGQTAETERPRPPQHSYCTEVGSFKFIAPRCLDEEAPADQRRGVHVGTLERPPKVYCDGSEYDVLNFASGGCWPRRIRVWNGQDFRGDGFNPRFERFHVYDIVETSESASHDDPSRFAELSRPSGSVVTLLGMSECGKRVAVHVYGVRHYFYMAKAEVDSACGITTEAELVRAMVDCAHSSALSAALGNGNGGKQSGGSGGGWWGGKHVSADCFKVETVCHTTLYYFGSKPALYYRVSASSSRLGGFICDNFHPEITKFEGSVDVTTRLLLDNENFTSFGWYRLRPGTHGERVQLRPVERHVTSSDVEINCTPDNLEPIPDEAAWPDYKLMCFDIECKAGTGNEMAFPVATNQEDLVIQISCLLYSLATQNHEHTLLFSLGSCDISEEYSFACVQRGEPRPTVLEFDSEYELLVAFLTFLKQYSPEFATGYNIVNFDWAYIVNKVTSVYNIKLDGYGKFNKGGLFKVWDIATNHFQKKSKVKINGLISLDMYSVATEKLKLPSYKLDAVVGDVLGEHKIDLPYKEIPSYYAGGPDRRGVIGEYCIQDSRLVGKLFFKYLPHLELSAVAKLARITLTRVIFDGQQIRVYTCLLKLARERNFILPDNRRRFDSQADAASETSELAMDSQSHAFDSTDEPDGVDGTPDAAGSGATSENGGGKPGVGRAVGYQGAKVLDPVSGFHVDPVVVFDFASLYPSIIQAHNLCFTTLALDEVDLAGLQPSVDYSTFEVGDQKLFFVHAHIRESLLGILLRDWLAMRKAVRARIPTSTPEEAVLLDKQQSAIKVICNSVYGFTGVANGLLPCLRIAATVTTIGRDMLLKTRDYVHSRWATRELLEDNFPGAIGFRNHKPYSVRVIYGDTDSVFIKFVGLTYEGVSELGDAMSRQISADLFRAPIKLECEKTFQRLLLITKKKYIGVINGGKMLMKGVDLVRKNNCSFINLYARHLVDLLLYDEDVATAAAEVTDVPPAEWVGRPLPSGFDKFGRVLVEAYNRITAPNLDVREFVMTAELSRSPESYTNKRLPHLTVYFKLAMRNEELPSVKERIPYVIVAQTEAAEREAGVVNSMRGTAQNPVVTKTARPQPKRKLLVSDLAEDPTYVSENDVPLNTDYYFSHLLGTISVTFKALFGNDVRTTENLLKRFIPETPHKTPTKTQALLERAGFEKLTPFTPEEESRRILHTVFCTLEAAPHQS

[2] = molecular target: T2, EHV-1 Pol D752 + pORF18 (viral DNA polymerase holoenzyme) (Equine herpesvirus type 1 (strain AB4P), UniProt P28858, D752N); details: poly(dA)-oligo(dT) template, [3H]dTTP; 4 μl translated Pol plus 200 fmol pORF18 in 20 μl; 0.5% DMSO
T2 construct: gene 30
T2 sequence (P28858 whole entry, stated change not applied): as the sequence (P28858 whole entry) above
T2 sequence (P28958 whole entry, stated change not applied, further chain): as the sequence (P28958 whole entry) above

Work on aphidicolin yielded an IC50 [1] of 3100 nM and an IC50 [2] of 900 nM.

Source: article PMC2065875, “A Point Mutation in a Herpesvirus Polymerase Determines Neuropathogenicity” (PLoS Pathogens, 2007)
